For one assay, the target named is Dopamine receptor. Put plainly: Compound was evaluated for the competitive binding with [3H]spiperone binding to Canine striatal membranes. Also on record: species or system Canis lupus familiaris.
In assay [1] the target is Dopamine receptor (Homo sapiens) (UniProt P14416+P35462+P21918+P21917+P21728). Put plainly: Compound was evaluated at 100 uM concentration to displace [3H]spiperone and result indicates the percent displacement. In kind it is protein assay. As to conditions: Canis lupus familiaris.

For the compound `Oc1ccc2c(c1O)-c1cccc3c1[C@@H](C2)N(CCCl)CC3`, the IC50 app on Dopamine receptor turned out to be 8 µM. The Displacement in assay [1] was 70%.

Source of the values: ChEMBL document CHEMBL1122674, “Aporphines. 58. N-(2-chloroethyl) [8,9-2H]norapomorphine, an irreversible ligand for dopamine receptors: synthesis and application” (J Med Chem, 1984).
